From PubChem BioAssay AID270 (DTP/NCI, 2004)
Several values for one entry are separate records, joined by “and”; a condition that tells them apart may be missing. Equal entries are not always repeated. Inconclusive results are not listed.

Test system: BDF1 mice, s.c. Lewis lung carcinoma, T/C %
Assay: NCI In Vivo Anticancer Drug Screen. Data for tumor model Lewis Lung Carcinoma (subcutaneous) in B6D2F1 (BDF1) mice
Method in brief: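 First, mice carry a transplantable tumor. Next, groups receive either compound or vehicle. Finally, survival or tumor dimensions in the dosed animals are divided by the corresponding control figure.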

[1] = endpoint: mean tumor weight, dose: 100.0 mg/kg/injection, schedule: Q01DX011 (ip), vehicle: carboxymethylcellulose (CMC), higher = larger tumour
[2] = endpoint: mean tumor weight, dose: 200.0 mg/kg/injection, schedule: Q01DX011 (ip), vehicle: carboxymethylcellulose (CMC), higher = larger tumour
[3] = endpoint: median survival time, dose: 50.0 mg/kg/injection, schedule: Q01DX009 (ip), vehicle: Klucel (hydroxypropylcellulose) (HPC), higher = longer survival
[4] = endpoint: median survival time, dose: 100.0 mg/kg/injection, schedule: Q01DX009 (ip), vehicle: Klucel (hydroxypropylcellulose) (HPC), higher = longer survival
[5] = endpoint: mean tumor weight, dose: 133.0 mg/kg/injection, schedule: Q01DX011 (ip), vehicle: other, higher = larger tumour
[6] = endpoint: mean tumor weight, dose: 200.0 mg/kg/injection, schedule: Q01DX011 (ip), vehicle: other, higher = larger tumour

`O=c1[nH]c(=O)n(C2CC(O)C(CO)O2)cc1F` (stereo unspecified) was tested, and the T/C (endpoint: mean tumor weight, dose: 10.0 mg/kg/injection, schedule: Q01DX011 (ip), vehicle: saline, higher = larger tumour) was 82 % of control, the T/C (endpoint: mean tumor weight, dose: 20.0 mg/kg/injection, schedule: Q01DX011 (ip), vehicle: saline, higher = larger tumour) was 57 % of control and the T/C (endpoint: mean tumor weight, dose: 26.0 mg/kg/injection, schedule: Q01DX011 (ip), vehicle: saline, higher = larger tumour) was 45 % of control. For the same compound, the T/C (endpoint: mean tumor weight, dose: 40.0 mg/kg/injection, schedule: Q01DX011 (ip), vehicle: other, higher = larger tumour) was 17 % of control and 23 % of control, the T/C (endpoint: mean tumor weight, dose: 40.0 mg/kg/injection, schedule: Q01DX011 (ip), vehicle: saline, higher = larger tumour) was 25 % of control and 27 % of control and the T/C (endpoint: mean tumor weight, dose: 60.0 mg/kg/injection, schedule: Q01DX011 (ip), vehicle: saline, higher = larger tumour) was 17 % of control and 23 % of control. The T/C (endpoint: mean tumor weight, dose: 80.0 mg/kg/injection, schedule: Q01DX011 (ip), vehicle: other, higher = larger tumour) was 10 % of control, the T/C (endpoint: mean tumor weight, dose: 80.0 mg/kg/injection, schedule: Q01DX011 (ip), vehicle: saline, higher = larger tumour) was 18 % of control and the T/C (endpoint: mean tumor weight, dose: 120.0 mg/kg/injection, schedule: Q01DX011 (ip), vehicle: saline, higher = larger tumour) was 1 % of control. For the same compound, the T/C (endpoint: mean tumor weight, dose: 160.0 mg/kg/injection, schedule: Q01DX011 (ip), vehicle: other, higher = larger tumour) was 4 % of control, the T/C (endpoint: median survival time, dose: 25.0 mg/kg/injection, schedule: Q01DX009 (ip), vehicle: saline, higher = longer survival) was 90 % of control and 110 % of control and 114 % of control and the T/C (endpoint: median survival time, dose: 36.0 mg/kg/injection, schedule: Q01DX011 (ip), vehicle: saline, higher = longer survival) was 116 % of control. The T/C (endpoint: median survival time, dose: 50.0 mg/kg/injection, schedule: Q01DX009 (ip), vehicle: saline with Tween-80, higher = longer survival) was 116 % of control, the T/C (endpoint: median survival time, dose: 50.0 mg/kg/injection, schedule: Q01DX009 (ip), vehicle: saline, higher = longer survival) was 92 % of control and 98 % of control and the T/C (endpoint: median survival time, dose: 80.0 mg/kg/injection, schedule: Q01DX011 (ip), vehicle: saline, higher = longer survival) was 104 % of control. For the same compound, the T/C (endpoint: median survival time, dose: 100.0 mg/kg/injection, schedule: Q01DX009 (ip), vehicle: saline with Tween-80, higher = longer survival) was 95 % of control, the T/C (endpoint: median survival time, dose: 119.0 mg/kg/injection, schedule: Q01DX011 (ip), vehicle: saline, higher = longer survival) was 94 % of control and the T/C (endpoint: median tumor weight (est.), dose: 25.0 mg/kg/injection, schedule: Q01DX009 (ip), vehicle: saline with Tween-80, higher = larger tumour) was 72 % of control. The T/C (endpoint: median tumor weight (est.), dose: 50.0 mg/kg/injection, schedule: Q01DX009 (ip), vehicle: saline with Tween-80, higher = larger tumour) was 66 % of control and the T/C (endpoint: median tumor weight (est.), dose: 100.0 mg/kg/injection, schedule: Q01DX009 (ip), vehicle: saline with Tween-80, higher = larger tumour) was 32 % of control.

`O=C1C2CCCCC2C(=O)N1c1nccs1` (stereo unspecified) was tested, and the T/C (endpoint: mean tumor weight, dose: 50.0 mg/kg/injection, schedule: Q01DX011 (ip), vehicle: carboxymethylcellulose (CMC), higher = larger tumour) was 58 % of control, the T/C [1] was 71 % of control and the T/C [2] was 84 % of control.

`Nc1ncc(CNc2ccc(C(=O)NC(CCC(=O)O)C(=O)O)cc2)c(N)n1` (stereo unspecified) was tested, and the T/C [3] was 94 % of control, the T/C [4] was 100 % of control and the T/C (endpoint: median survival time, dose: 400.0 mg/kg/injection, schedule: Q01DX009 (ip), vehicle: Klucel (hydroxypropylcellulose) (HPC), higher = longer survival) was 117 % of control.

For `C/C=C(\C)C(=O)OC1C(C)C2(O)C(C=C(CO)CC3(O)C(=O)C(C)=CC32)C2C(C)(C)C12OC(=O)CCCCCCCCC` (stereo unspecified), the T/C (endpoint: median survival time, dose: 0.13 mg/kg/injection, schedule: Q01DX009 (ip), vehicle: saline + alcohol, higher = longer survival) was 103 % of control, the T/C (endpoint: median survival time, dose: 0.25 mg/kg/injection, schedule: Q01DX009 (ip), vehicle: saline + alcohol, higher = longer survival) was 95 % of control and the T/C (endpoint: median survival time, dose: 0.5 mg/kg/injection, schedule: Q01DX009 (ip), vehicle: saline + alcohol, higher = longer survival) was 92 % of control.

With `O=NN(CCCl)C(=O)Nc1ccc2[nH]c3ccccc3c2c1` the T/C (endpoint: median survival time, dose: 4.0 mg/kg/injection, schedule: Q01DX009 (ip), vehicle: Klucel (hydroxypropylcellulose) (HPC), higher = longer survival) was 119 % of control, the T/C (endpoint: median survival time, dose: 8.12 mg/kg/injection, schedule: Q01DX009 (ip), vehicle: Klucel (hydroxypropylcellulose) (HPC), higher = longer survival) was 110 % of control and the T/C (endpoint: median survival time, dose: 32.5 mg/kg/injection, schedule: Q01DX009 (ip), vehicle: Klucel (hydroxypropylcellulose) (HPC), higher = longer survival) was 97 % of control.

In the case of `Cc1nnc(N)s1`, the T/C [5] is reported as 80 % of control, the T/C [6] is reported as 77 % of control and the T/C (endpoint: mean tumor weight, dose: 300.0 mg/kg/injection, schedule: Q01DX011 (ip), vehicle: other, higher = larger tumour) is reported as 79 % of control.

With `CC1=C(/C=C/C(C)=C/C=C/C(C)=C/CO)C(C)(C)CCC1` the T/C (endpoint: median survival time, dose: 4.0 mg/kg/injection, schedule: Q01DX005 (ip), vehicle: saline with Tween-80, higher = longer survival) was 108 % of control, the T/C (endpoint: median survival time, dose: 12.5 mg/kg/injection, schedule: Q01DX005 (ip), vehicle: saline with Tween-80, higher = longer survival) was 109 % of control and the T/C (endpoint: median survival time, dose: 16.0 mg/kg/injection, schedule: Q01DX005 (ip), vehicle: saline with Tween-80, higher = longer survival) was 111 % of control. For the same compound, the T/C (endpoint: median survival time, dose: 32.0 mg/kg/injection, schedule: Q01DX005 (ip), vehicle: saline with Tween-80, higher = longer survival) was 115 % of control, the T/C (endpoint: median survival time, dose: 64.0 mg/kg/injection, schedule: Q01DX005 (ip), vehicle: saline with Tween-80, higher = longer survival) was 191 % of control and the T/C (endpoint: median survival time, dose: 128.0 mg/kg/injection, schedule: Q01DX005 (ip), vehicle: saline with Tween-80, higher = longer survival) was 92 % of control.

With `Clc1ccc(C(c2ccccc2Cl)C(Cl)Cl)cc1` (stereo unspecified) the T/C (endpoint: mean tumor weight, dose: 62.5 mg/kg/injection, schedule: Q01DX011 (sc), vehicle: steriod suspending solution, higher = larger tumour) was 98 % of control, the T/C (endpoint: mean tumor weight, dose: 125.0 mg/kg/injection, schedule: Q01DX011 (sc), vehicle: steriod suspending solution, higher = larger tumour) was 113 % of control and the T/C (endpoint: mean tumor weight, dose: 250.0 mg/kg/injection, schedule: Q01DX011 (sc), vehicle: steriod suspending solution, higher = larger tumour) was 84 % of control. For the same compound, the T/C (endpoint: mean tumor weight, dose: 500.0 mg/kg/injection, schedule: Q01DX011 (sc), vehicle: steriod suspending solution, higher = larger tumour) was 99 % of control.

With `CN(Cc1cnc2nc(N)nc(N)c2n1)c1c(Cl)cc(C(=O)NC(CCC(=O)O)C(=O)O)cc1Cl` (stereo unspecified) the T/C (endpoint: median survival time, dose: 90.0 mg/kg/injection, schedule: Q01DX009 (ip), vehicle: sodium bicarbonate, higher = longer survival) was 110 % of control, the T/C (endpoint: median survival time, dose: 560.0 mg/kg/injection, schedule: Q04DX003 (ip), vehicle: sodium bicarbonate, higher = longer survival) was 112 % of control and the T/C (endpoint: median survival time, dose: 626.0 mg/kg/injection, schedule: Q01DX001 (ip), vehicle: sodium bicarbonate, higher = longer survival) was 116 % of control. The T/C (endpoint: median survival time, dose: 840.0 mg/kg/injection, schedule: Q04DX003 (ip), vehicle: sodium bicarbonate, higher = longer survival) was 108 % of control, the T/C (endpoint: median survival time, dose: 933.0 mg/kg/injection, schedule: Q01DX001 (ip), vehicle: sodium bicarbonate, higher = longer survival) was 92 % of control and the T/C (endpoint: median survival time, dose: 1400.0 mg/kg/injection, schedule: Q01DX001 (ip), vehicle: sodium bicarbonate, higher = longer survival) was 100 % of control.

In the case of `C=C(C)C1CC=C(C)CC1` (stereo unspecified), the T/C [1] is reported as 65 % of control and the T/C [2] is reported as 43 % of control.

With `COc1ccc2c(Cc3ccccc3)cncc2c1O` the T/C (endpoint: median survival time, dose: 12.5 mg/kg/injection, schedule: Q01DX009 (ip), vehicle: Klucel (hydroxypropylcellulose) (HPC), higher = longer survival) was 90 % of control, the T/C (endpoint: median survival time, dose: 25.0 mg/kg/injection, schedule: Q01DX009 (ip), vehicle: Klucel (hydroxypropylcellulose) (HPC), higher = longer survival) was 101 % of control and the T/C [3] was 91 % of control. The T/C [4] was 101 % of control.

In the case of `O=C1c2ccccc2CCc2ccccc21`, the T/C [5] is reported as 91 % of control, the T/C [6] is reported as 173 % of control and the T/C (endpoint: mean tumor weight, dose: 450.0 mg/kg/injection, schedule: Q01DX011 (ip), vehicle: other, higher = larger tumour) is reported as 74 % of control.

For `CN(C)C(=S)N=Nc1c(O)[nH]c2ccccc12`, the T/C (endpoint: mean tumor weight, dose: 6.6 mg/kg/injection, schedule: Q01DX011 (ip), vehicle: carboxymethylcellulose (CMC), higher = larger tumour) was 74 % of control, the T/C (endpoint: mean tumor weight, dose: 10.0 mg/kg/injection, schedule: Q01DX011 (ip), vehicle: carboxymethylcellulose (CMC), higher = larger tumour) was 89 % of control and the T/C (endpoint: mean tumor weight, dose: 15.0 mg/kg/injection, schedule: Q01DX011 (ip), vehicle: carboxymethylcellulose (CMC), higher = larger tumour) was 47 % of control and 65 % of control. For the same compound, the T/C (endpoint: mean tumor weight, dose: 30.0 mg/kg/injection, schedule: Q01DX011 (ip), vehicle: carboxymethylcellulose (CMC), higher = larger tumour) was 50 % of control.

With `COc1ccc(CC2C(=O)NC(C)C(=O)N(C)C3C(=O)N(C)C(Cc4ccc(O)c(c4)Oc4ccc(cc4)C3O)C(=O)NC(C)C(=O)NC(C)C(=O)N2C)cc1` (stereo unspecified) the T/C (endpoint: median survival time, dose: 0.25 mg/kg/injection, schedule: Q01DX009 (ip), vehicle: saline, higher = longer survival) was 96 % of control, the T/C (endpoint: median survival time, dose: 0.5 mg/kg/injection, schedule: Q01DX009 (ip), vehicle: saline, higher = longer survival) was 97 % of control and the T/C (endpoint: median survival time, dose: 1.0 mg/kg/injection, schedule: Q01DX009 (ip), vehicle: saline, higher = longer survival) was 113 % of control. The T/C (endpoint: median survival time, dose: 2.0 mg/kg/injection, schedule: Q01DX009 (ip), vehicle: saline, higher = longer survival) was 87 % of control.

In the case of `Cc1ccccn1`, the T/C (endpoint: mean tumor weight, dose: 62.5 mg/kg/injection, schedule: Q01DX011 (ip), vehicle: carboxymethylcellulose (CMC), higher = larger tumour) is reported as 93 % of control, the T/C (endpoint: mean tumor weight, dose: 125.0 mg/kg/injection, schedule: Q01DX011 (ip), vehicle: carboxymethylcellulose (CMC), higher = larger tumour) is reported as 112 % of control and the T/C (endpoint: mean tumor weight, dose: 250.0 mg/kg/injection, schedule: Q01DX011 (ip), vehicle: carboxymethylcellulose (CMC), higher = larger tumour) is reported as 94 % of control.
